In series [1] the target is T1, Dual specificity protein kinase TTK (Homo sapiens) (UniProt P33981).
T1 sequence (whole entry): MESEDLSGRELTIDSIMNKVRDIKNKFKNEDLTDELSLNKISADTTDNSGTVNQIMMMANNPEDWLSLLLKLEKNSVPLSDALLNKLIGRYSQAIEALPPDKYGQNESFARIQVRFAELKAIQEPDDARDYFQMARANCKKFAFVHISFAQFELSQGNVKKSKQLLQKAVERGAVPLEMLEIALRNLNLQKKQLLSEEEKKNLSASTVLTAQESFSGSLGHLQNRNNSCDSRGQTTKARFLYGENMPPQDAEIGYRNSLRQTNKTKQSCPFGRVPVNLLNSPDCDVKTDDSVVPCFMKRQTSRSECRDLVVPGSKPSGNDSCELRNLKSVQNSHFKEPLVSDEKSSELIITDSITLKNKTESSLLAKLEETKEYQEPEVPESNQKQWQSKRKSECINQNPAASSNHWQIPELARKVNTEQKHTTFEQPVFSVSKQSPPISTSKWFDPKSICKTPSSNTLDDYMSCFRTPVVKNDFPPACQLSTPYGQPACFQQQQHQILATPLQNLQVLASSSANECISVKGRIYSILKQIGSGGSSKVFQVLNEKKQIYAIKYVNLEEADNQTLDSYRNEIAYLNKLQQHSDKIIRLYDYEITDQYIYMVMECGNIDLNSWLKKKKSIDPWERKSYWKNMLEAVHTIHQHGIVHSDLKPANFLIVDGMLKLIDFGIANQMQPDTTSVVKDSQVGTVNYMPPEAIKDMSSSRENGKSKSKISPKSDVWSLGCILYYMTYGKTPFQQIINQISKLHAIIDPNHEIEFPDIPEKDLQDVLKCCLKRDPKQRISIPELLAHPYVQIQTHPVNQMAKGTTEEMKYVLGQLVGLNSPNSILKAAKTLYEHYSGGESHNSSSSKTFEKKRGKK
Description: Binding affinity to human hexa-His tagged MPS1 (515 to 795 residue) expressed in Escherichia coli BL2I-DE3 cells assessed as change in melting temperature by thermal shift assay.

Series [2] relates to MDA-MB-231. Put plainly: Growth inhibition of human MDA-MB-231 cells measured after 5 days by CellTiter-Glo assay. It counts as functional. The conditions noted are these: time 5 day; for GI50: Homo sapiens, MDA-MB-231, 120 h.
The target of series [3] is T2, Dual specificity protein kinase TTK (Homo sapiens, UniProt P33981).
T2 sequence (P33981 whole entry): T1 sequence (whole entry)
Description: Inhibition of human hexa-His tagged MPS1 (515 to 795 residue) expressed in Escherichia coli BL2I-DE3 cells incubated for 4 hrs in presence of ATP by ADP-glo luminescence assay. For orientation: ADP-Glo first removes unused ATP, then detects ADP through luciferase.

The nature of series [4]: Metabolic stability in human liver microsomes assessed as compound remaining after 30 mins. It counts as ADME, Microsome. The conditions noted are these: read-out: Stability.
Series [5] can be described thus: Half life in ICR mouse at 10 mg/kg, po. It counts as ADME, organism-based. The conditions noted are these: in vivo.
A short description of series [6]: Cmax in ICR mouse at 10 mg/kg, po. It counts as ADME, organism-based. The note with it: in vivo. On the set-up: route oral, dose 10 mg/kg.
A short description of series [7]: AUC in ICR mouse at 10 mg/kg, po. It counts as ADME, organism-based. Details: dose 10 mg/kg. The note with it: in vivo.
Series [8] is described as follows: Oral bioavailability in ICR mouse at 10 mg/kg. The conditions noted are these: in vivo. Format: ADME, organism-based.
The test system of series [9] is MDA-MB-231. Put plainly: Antitumor activity against human MDA-MB-231 cells xenografted in athymic mouse model assessed as tumor growth inhibition at 2 mg/kg administered daily and measured twice a week. Format: functional. The note with it: read-out: TGI. On the technique in general: Xenograft models place foreign cells or tissue in a host animal.
Series [10] in a line: Toxicity in athymic mouse xenografted with human MDA-MB-231 cells assessed as change in intestine morphology at 2 mg/kg administered daily and measured twice a week. Format: organism-based. The conditions noted are these: in vivo.
Series [11] in a line: Toxicity in athymic mouse xenografted with human MDA-MB-231 cells assessed as effect on body weight at 2 mg/kg administered daily and measured twice a week. The conditions noted are these: in vivo. It counts as organism-based.
The nature of series [12]: Toxicity in athymic mouse xenografted with human MDA-MB-231 cells assessed as body weight gain at 2 mg/kg administered daily and measured twice a week (reference value: 15.5 %). It counts as organism-based. The conditions noted are these: in vivo.
In series [13] the target is T1, Dual specificity protein kinase TTK (Homo sapiens). Description: Inhibition of human […] assessed as reduction in MPS1 autophosphorylation at 0.1 to 10 uM by Western blot analysis. The conditions noted are these: dose 0.1-10 µM.
The target is the same in series [14]. Put plainly: Inhibition of human […] assessed as reduction in histone H3 phosphorylation at 0.1 to 10 uM by Western blot analysis. The note with it: dose 0.1-10 µM.

The source made the active and inactive calls. No cut-off for these calls is given here.

Take `COc1cc(N2CCCC2=O)ccc1Nc1nc(NC2CCCCC2)c2cc[nH]c2n1`: the ΔTm (as a rule, the change in melting temperature against a reference sample) in series [1] came to 15.3 °C. Also, in [2], the GI50 – broadly, the concentration at which growth is held to half of that of the control – worked out at 55 nM and the GI90 was 380 nM.
With `COc1cc(N2CCCC2=O)ccc1Nc1nc(NCC(C)C)c2c(C#N)c[nH]c2n1`, the ΔTm in [1] turned out to be 13.8 °C. Further, in series [2], the GI50 amounted to 20 nM and the GI90 was found to be 122 nM.
On to `N#Cc1c[nH]c2nc(Nc3ccc(N4CCCC4=O)cn3)nc(NC3CCCCC3)c12`, for which the ΔTm in series [1] came out at 13.8 °C. In series [2], this compound showed a GI50 of 364 nM and a GI90 of 668 nM.
In the case of `N#Cc1c[nH]c2nc(Nc3ccc(N4CCCC4=O)cc3)nc(NC3CCCCC3)c12`, the ΔTm in [1] was 17.2 °C. In series [2], this compound gave a GI50 of 46 nM and a GI90 of 67 nM.
As for `COc1cc(N2CCCC2=O)ccc1Nc1nc(NCC2CCCC2)c2c(C#N)c[nH]c2n1`, the thermal shift (ΔTm) in series [1] came to 15.2 °C. Also, in series [2], the GI50 stood at 171 nM and the GI90 was >1000 nM.
For `COc1cc(N2CCOCC2=O)ccc1Nc1nc(NC2CCCCC2)c2c(C#N)c[nH]c2n1` the same measures were 17.2 °C, 10 nM and >1000 nM.
For `CC[C@H](C)Nc1nc(Nc2ccc(N3CCCC3=O)cc2OC)nc2[nH]cc(C#N)c12`, in that order: 15.1 °C, 96 nM and 328 nM.
On to `Cc1cc(N2CCOCC2)ccc1Nc1nc(NC2CCCCC2)c2c(C(F)(F)F)c[nH]c2n1`, for which, in series [1], the ΔTm turned out to be 17.2 °C. For the same compound, in series [2], the GI50 is > 1000 nM and the GI90 is >1000 nM.
Turning to `Cc1cc(N2CCOCC2)ccc1Nc1nc(NC2CCCCC2)c2c(Cl)c[nH]c2n1`, the ΔTm in series [1] amounted to 18.1 °C. For the same compound, in series [2], the GI50 was 129 nM and the GI90 was >1000 nM.
As to `COc1cc(N2CCCC2=O)ccc1Nc1nc(NC2CCCCC2)c2c(C(F)(F)F)c[nH]c2n1`, the ΔTm in [1] was 15.1 °C. In [2], halving of growth (GI50) required 327 nM and the GI90 is >1000 nM.
On to `COc1cc(N2CCCC2=O)ccc1Nc1nc(NC2CCOCC2)c2c(C#N)c[nH]c2n1`, for which the ΔTm in series [1] came to 14.8 °C. Moreover, in series [2], the GI50 was > 1000 nM and the GI90 was >1000 nM.
Take `COc1cc(N2CCCC2=O)ccc1Nc1nc(NCC2CCC2)c2c(C#N)c[nH]c2n1`: the ΔTm in [1] was 15.2 °C. In addition, in series [2], the GI50 is > 1000 nM and the GI90 is on record as >1000 nM.
As for `CNc1nc(Nc2ccc(N3CCCC3=O)cc2OC)nc2[nH]cc(C#N)c12`, the ΔTm in [1] is 7.3 °C. For the same compound, in series [2], the GI50 worked out at 637 nM and the GI90 is >1000 nM.
Turning to `COc1cc(N2CCCC2=O)ccc1Nc1nc(NCC(C)(C)C)c2c(C#N)c[nH]c2n1`, the ΔTm in [1] stood at 14.4 °C. In series [2], the GI50 is 149 nM and the GI90 was >1000 nM.
Take `COc1cc(N2CCCC2=O)ccc1Nc1nc(NC2CCCC2)c2c(C#N)c[nH]c2n1`: the ΔTm in [1] came out at 17.1 °C. In [2], this compound returned a GI50 of 25 nM and a GI90 of 383 nM.
For `COc1cc(C(=O)N2CCOCC2)ccc1Nc1nc(NC2CCCCC2)c2c(C#N)c[nH]c2n1`, the ΔTm in series [1] is 16.1 °C. Moreover, in series [2], the GI50 was 3 nM and the GI90 worked out at 43 nM. For the same compound, the IC50 – broadly, the concentration that inhibits the measured activity by half – in series [3] turned out to be 3.2 nM. Further, in [4], the remaining at 0.5 h worked out at 56%. Further, the half-life – broadly, how long it takes for the measured level to halve – in series [5] was 2.6 h. The Cmax (commonly the peak of the concentration-time curve) in [6] was 995 ng/mL. The AUC (as a rule, concentration integrated over time) in series [7] was found to be 3770 ng·h/mL. Also, in series [8], the bioavailability (usually dose-corrected exposure relative to a reference, in per cent) worked out at 98%.
In the case of `Cc1cc(N2CCOCC2)ccc1Nc1nc(NC2CCCCC2)c2c(C#N)c[nH]c2n1`, the ΔTm in series [1] worked out at 19.9 °C. In series [2], halving of growth (GI50) required 17 nM and the GI90 is 313 nM. Besides, the IC50 in series [3] came to 6.3 nM. The remaining at 0.5 h in series [4] worked out at 57%. The half-life in series [5] is 1.2 h. Further, in [6], the concentration peaked (Cmax) at 749 ng/mL. For the same compound, the AUC in series [7] was 1270 ng·h/mL. Also, the bioavailability in series [8] worked out at 44%.
For `Cn1cc(Nc2nc(NC3CCCCC3)c3c(C#N)c[nH]c3n2)cn1`, in series [1], the ΔTm came to 15.2 °C. Moreover, in series [2], the GI50 was determined as 109 nM and the GI90 was >1000 nM.
For `CCOc1cc(N2CCCC2=O)ccc1Nc1nc(NC2CCCCC2)c2c(C#N)c[nH]c2n1`, the ΔTm in series [1] stood at 16.9 °C. In series [2], this compound showed a GI50 of 108 nM and a GI90 of 478 nM.
For `COc1cc(N2CCCC2=O)ccc1Nc1nc(NC2CCC2)c2c(C#N)c[nH]c2n1`, in that order: 14.3 °C, > 1000 nM and >1000 nM.
As to `COc1cc(N2CCCC2=O)ccc1Nc1nc(NC2CCCCC2)c2c(C#N)c[nH]c2n1`, the inhibition in vivo at 2 mg/kg in series [9] was determined as 57%. For the same compound, the ΔTm in series [1] turned out to be 18.3 °C. Further, it took 11 nM to inhibit growth in [2] by half (GI50). This compound also gave a GI90 in series [2] of 37 nM. Also, the IC50 in series [3] came out at 6.4 nM. In addition, the remaining at 0.5 h in [4] came to 60%. The compound further showed a half-life in [5] of 1.1 h. The same compound came in with a Cmax in [6] of 2220 ng/mL. The compound also came in with an AUC in series [7] of 6150 ng·h/mL. Besides, in [8], the bioavailability stood at 61%. Besides, the results for the Activity entry in series [10], in series [11] and in [12] were “Non-Toxic”, “Non-Toxic” and 7.6%, respectively. Further, the inhibition entry in series [13] and in series [14] was “Active” in each case.
As for `COc1cc(N2CCCC2=O)ccc1Nc1nc(NC(C)C)c2c(C#N)c[nH]c2n1`, in [1], the ΔTm was determined as 14.2 °C. In series [2], this compound yielded a GI50 of 10 nM and a GI90 of 481 nM.
For `CCCCNc1nc(Nc2ccc(N3CCCC3=O)cc2OC)nc2[nH]cc(C#N)c12`, the ΔTm in [1] is 11.2 °C. In addition, in series [2], the concentration for 50% growth inhibition (GI50) stood at 18 nM and the GI90 came to 267 nM.
Regarding `COCC(C)(C)Nc1nc(Nc2ccc(N3CCCC3=O)cc2OC)nc2[nH]cc(C#N)c12`, in series [1], the ΔTm worked out at 15.1 °C. In addition, in [2], halving of growth (GI50) required 916 nM and the GI90 is listed as >1000 nM.

For the origin of these results see ChEMBL document CHEMBL5036311, “X-ray Crystal Structure-Guided Design and Optimization of 7H-Pyrrolo[2,3-d]pyrimidine-5-carbonitrile Scaffold as a Potent and Orally Active Monopolar Spindle 1 Inhibitor” (J Med Chem, 2021).
